Measured values as given in patent US12186283B2, “Bismuth-thiol compositions and methods of use” (Microbion Corporation, priority 2018, dated 2025).
“And” between values parts separate entries of the source, which are not always exact repeats. Equal entries are not always repeated.

What was measured:
Candida spp. = experiment: Broth microdilution MIC, yeast (Example 13), group statement and QC; format: cell-based; settings: C. parapsilosis ATCC 22019, footnote b not given
[1] = Phase 1 human clinical studies, topical administration; format: in vivo; settings: humans
[2] = Clinical chemistry after face-mask inhalation in beagle dogs; format: in vivo; settings: times not given
Method: The objective of the study is to determine the maximum tolerated dose (MTD) or maximum feasible dose (MFD) of inhaled bismuth ethanedithiol (BisEDT) after face-mask inhalation exposure (up to 60 min of exposure) in male and female beagle dogs. Animals will be monitored for up to 14 days following the first day of exposure and blood will be collected at predetermined timepoints to analyze the pharmacokinetics of BisEDT. In addition, a coagulation panel will be conducted prior to necropsy. At the conclusion of the study animals will be euthanized and undergo necropsy during which the respiratory tract will be harvested for bioanalytical and histopathological analysis. Results obtained will inform a follow up repeated dose GLP study. This test article is currently being developed as a novel formulation of a broad spectrum antimicrobial/antibiofilm agent, indicated for the treatment of lung infections in patients with cystic fibrosis.
Once adequately conditioned to the restraint device and face-masks, the animals are individually exposed to the test article aerosols. Animals receive a single face-mask inhalation exposure in a ramp study design to test article aerosols for up to 60 min. Animal observations during and post exposure determine the tolerance of inhaled BisEDT aerosols.
Group 1 (vehicle) are exposed to a vehicle atmosphere for 30 minutes. Group 2 (50 μg/kg) are exposed to BisEDT for 30 minutes. Target concentrations and exposure durations for Groups 3-5 are based on the presence of any toxicity via clinical observations or gross necropsy findings. In each of Groups 3-5, if no adverse clinical signs of toxicity are observed, the next groups' exposure will be conducted at a higher target dose. If adverse clinical signs of toxicity are observed, the next groups' exposure will be conducted at a lower target dose. This approach is repeated for all BisEDT doses. The final documented exposure duration is the maximum tolerated dose or the maximum feasible dose.
Blood are collected for pharmacokinetic (PK) analysis prior to exposure, then at 4 hr (±5 min) post exposure, and again on Day 1, Day 2, Day 7 (pre- and 4 hr (±5 min)-post exposure), Day 8, Day 9, Day 10, Day 11, Day 12, Day 13, and Day 14. A total of 0.25 mL is collected at each timepoint. No PK blood is collected from the vehicle control (Group 1) animals; only animals exposed to BisEDT have blood collected for PK analysis. Collected samples are flash frozen without processing for shipment to Medpace for bioanalytical analysis. Additional blood is collected from all animals in all groups for hematology (1 mL) and clinical chemistry (1 mL) at baseline, Day 7 (pre-exposure), and again at euthanasia. Blood (2-2 mL) is collected from all animals at necropsy for coagulation analysis (d-Dimer, fibrinogen, PT, and PTT).
For clinical chemistry analyses, whole blood (1 mL) is placed into serum separator or clot tube and […] by centrifugation at a minimum of 1300 g at 2 to 8° C. for 10 (±1) min. Plasma samples are stored at −70 to −90° C. until analysis.
Clinical chemistry samples are analyzed on a Hitachi Modular Analytics Clinical Chemistry System (Roche Diagnostics, Indianapolis, IN).

E. coli ATCC 25922 = settings: control strain ATCC 25922 E. coli; per CLSI M100-S24 or provided by Microbion; cited from earlier work
[3] = Grp 2, dogs 2001 male, 2002 female, 3 samplings each
[4] = Grp 3, dogs 3001 male, 3002 female, 3 samplings each
[5] = Grp 4, dogs 4001 male, 4004 female (3 samplings each), 4002 female, 4003 male (2 samplings each)
[6] = Grp 4 Avg (stands after dogs 4001, 4004), 3 samplings

CC(S)C(C)S.[Bi] (stereo not shown) [BisBDT, bismuth-2,3-butanedithiol]
MIC 24 hr, second value of the pair x/y (Candida spp.; 24 hr): 2 | MIC 48 hr, second value of the pair x/y (Candida spp.; 48 hr): 4

C1C[S][Bi]([S]CC[S][Bi]2[S]CC[S]2)[S]1 [BisEDT, bismuth-1,2-ethanedithiol]
concentration well-tolerated ([1]; administered topically for 6 hours): up to 2500 μg/cm^2 | concentration tolerated ([1]; topical, over 21 days continuous exposure to normal and abraded skin): up to 75 μg/cm^2 | AGR [2, 3]: 1.9 and 2.0 and 1.8 and 1.7 and 2.3 | ALB [2, 3]: 3.3 g/dL and 3.4 g/dL and 3.5 g/dL and 3.6 g/dL and 3.7 g/dL | ALT [2, 3]: 22 IU/L and 18 IU/L and 29 IU/L and 27 IU/L | AST [2, 3]: 48 IU/L and 36 IU/L and 35 IU/L and 41 IU/L and 38 IU/L | BUN [2, 3]: 12 mg/dL and 16 mg/dL and 15 mg/dL and 13 mg/dL and 14 mg/dL | CA2 [2, 3]: 10.9 mg/dL and 10.8 mg/dL and 11.0 mg/dL and 10.6 mg/dL | CHOL [2, 3]: 168 mg/dL and 167 mg/dL and 152 mg/dL and 138 mg/dL and 123 mg/dL and 114 mg/dL | CREA [2, 3]: 0.7 mg/dL and 0.6 mg/dL | GGT [2, 3]: 3 IU/L | GLOB [2, 3]: 1.7 g/dL and 2.0 g/dL and 1.9 g/dL and 1.6 g/dL | GLUC [2, 3]: 91 mg/dL and 97 mg/dL and 102 mg/dL and 95 mg/dL and 98 mg/dL and 89 mg/dL | K [2, 3]: 4.5 mmo/L and 4.9 mmo/L and 4.7 mmo/L and 5.0 mmo/L and 5.2 mmo/L and 4.6 mmo/L | Na [2, 3]: 149 mmo/L and 147 mmo/L and 148 mmo/L | TBIL [2, 3]: 0.15 mg/dL | TP [2, 3]: 5.0 g/dL and 5.1 g/dL and 5.5 g/dL and 5.2 g/dL and 5.3 g/dL | AGR ([2]; Grp 2 Avg, 3 samplings): 1.8 and 2.2 and 2.1 | ALB ([2]; Grp 2 Avg, 3 samplings): 3.3 g/dL and 3.5 g/dL and 3.6 g/dL | ALPK ([2]; Grp 2 Avg, 3 samplings): 186 IU/L and 126 IU/L and 116 IU/L | ALT ([2]; Grp 2 Avg, 3 samplings): 20 IU/L and 26 IU/L and 25 IU/L | AST ([2]; Grp 2 Avg, 3 samplings): 42 IU/L and 39 IU/L and 37 IU/L | BUN ([2]; Grp 2 Avg, 3 samplings): 13 mg/dL and 15 mg/dL | CA2 ([2]; Grp 2 Avg, 3 samplings): 10.9 mg/dL and 10.8 mg/dL | CHOL ([2]; Grp 2 Avg, 3 samplings): 153 mg/dL and 145 mg/dL and 133 mg/dL | CREA ([2]; Grp 2 Avg, 3 samplings): 0.7 mg/dL and 0.6 mg/dL | GGT ([2]; Grp 2 Avg, 3 samplings): 3 IU/L | GLOB ([2]; Grp 2 Avg, 3 samplings): 1.8 g/dL and 1.7 g/dL | GLUC ([2]; Grp 2 Avg, 3 samplings): 93 mg/dL and 98 mg/dL and 96 mg/dL | K ([2]; Grp 2 Avg, 3 samplings): 4.8 mmo/L and 5.1 mmo/L and 4.7 mmo/L | Na ([2]; Grp 2 Avg, 3 samplings): 149 mmo/L and 147 mmo/L and 148 mmo/L | TBIL ([2]; Grp 2 Avg, 3 samplings): 0.15 mg/dL | TP ([2]; Grp 2 Avg, 3 samplings): 5.1 g/dL and 5.2 g/dL and 5.4 g/dL | TRIG ([2]; Grp 2 Avg, 3 samplings): 52 mg/dL and 60 mg/dL and 47 mg/dL | AGR [2, 4]: 2.0 and 2.1 and 2.3 and 1.8 and 2.6 | ALB [2, 4]: 3.2 g/dL and 3.4 g/dL and 3.5 g/dL and 3.7 g/dL | ALPK [2, 4]: 142 IU/L and 135 IU/L and 121 IU/L and 164 IU/L and 90 IU/L and 176 IU/L | ALT [2, 4]: 26 IU/L and 24 IU/L and 22 IU/L and 28 IU/L and 20 IU/L | AST [2, 4]: 30 IU/L and 32 IU/L and 33 IU/L and 28 IU/L | CA2 [2, 4]: 10.7 mg/dL and 10.5 mg/dL and 10.0 mg/dL and 11.2 mg/dL and 10.8 mg/dL and 10.4 mg/dL | CHOL [2, 4]: 100 mg/dL and 111 mg/dL and 126 mg/dL and 175 mg/dL and 141 mg/dL | CREA [2, 4]: 0.6 mg/dL and 0.7 mg/dL and 1.0 mg/dL and 0.5 mg/dL and 0.9 mg/dL | GGT [2, 4]: 3 IU/L | GLOB [2, 4]: 1.6 g/dL and 1.7 g/dL and 1.5 g/dL and 2.0 g/dL and 1.4 g/dL | K [2, 4]: 4.7 mmo/L and 5.1 mmo/L and 5.8 mmo/L and 5.5 mmo/L and 5.3 mmo/L and 5.9 mmo/L | Na [2, 4]: 146 mmo/L and 148 mmo/L and 149 mmo/L and 145 mmo/L | TBIL [2, 4]: 0.15 mg/dL | TP [2, 4]: 4.8 g/dL and 5.1 g/dL and 5.0 g/dL and 5.5 g/dL | AGR ([2]; Grp 3 Avg, 3 samplings): 2.2 and 1.9 and 2.4 | ALB ([2]; Grp 3 Avg, 3 samplings): 3.4 g/dL and 3.5 g/dL and 3.6 g/dL | ALPK ([2]; Grp 3 Avg, 3 samplings): 153 IU/L and 113 IU/L and 149 IU/L | ALT ([2]; Grp 3 Avg, 3 samplings): 27 IU/L and 22 IU/L and 21 IU/L | AST ([2]; Grp 3 Avg, 3 samplings): 30 IU/L and 32 IU/L | CA2 ([2]; Grp 3 Avg, 3 samplings): 11.0 mg/dL and 10.7 mg/dL and 10.2 mg/dL | CHOL ([2]; Grp 3 Avg, 3 samplings): 113 mg/dL and 143 mg/dL and 126 mg/dL | CREA ([2]; Grp 3 Avg, 3 samplings): 0.6 mg/dL and 1.0 mg/dL | GGT ([2]; Grp 3 Avg, 3 samplings): 3 IU/L | GLOB ([2]; Grp 3 Avg, 3 samplings): 1.6 g/dL and 1.9 g/dL and 1.5 g/dL | GLUC ([2]; Grp 3 Avg, 3 samplings): 106 mg/dL and 89 mg/dL and 58 mg/dL | K ([2]; Grp 3 Avg, 3 samplings): 5.1 mmo/L and 5.2 mmo/L and 5.9 mmo/L | Na ([2]; Grp 3 Avg, 3 samplings): 148 mmo/L and 146 mmo/L and 149 mmo/L | TBIL ([2]; Grp 3 Avg, 3 samplings): 0.15 mg/dL | TP ([2]; Grp 3 Avg, 3 samplings): 4.9 g/dL and 5.3 g/dL and 5.1 g/dL | TRIG ([2]; Grp 3 Avg, 3 samplings): 30 mg/dL and 39 mg/dL and 55 mg/dL | AGR [2, 5]: 2.3 and 1.8 and 1.9 and 2.0 and 1.7 and 1.6 | ALB [2, 5]: 3.6 g/dL and 3.4 g/dL and 3.2 g/dL and 3.3 g/dL and 3.5 g/dL | ALPK [2, 5]: 103 IU/L and 114 IU/L and 119 IU/L and 93 IU/L and 95 IU/L and 147 IU/L and 146 IU/L and 129 IU/L | ALT [2, 5]: 27 IU/L and 28 IU/L and 25 IU/L and 24 IU/L and 20 IU/L and 21 IU/L and 40 IU/L and 23 IU/L | AST [2, 5]: 32 IU/L and 39 IU/L and 34 IU/L and 33 IU/L and 38 IU/L and 31 IU/L and 35 IU/L and 30 IU/L | BUN [2, 5]: 11 mg/dL and 12 mg/dL and 13 mg/dL and 16 mg/dL and 15 mg/dL | CA2 [2, 5]: 10.8 mg/dL and 10.6 mg/dL and 10.4 mg/dL and 11.1 mg/dL and 11.2 mg/dL and 11.0 mg/dL | CREA [2, 5]: 0.7 mg/dL and 0.6 mg/dL and 0.5 mg/dL | GGT [2, 5]: 3 IU/L | GLOB [2, 5]: 1.6 g/dL and 1.9 g/dL and 1.7 g/dL and 2.1 g/dL and 2.0 g/dL | K [2, 5]: 4.7 mmo/L and 4.8 mmo/L and 4.6 mmo/L and 5.1 mmo/L and 4.3 mmo/L and 5.3 mmo/L and 4.9 mmo/L | Na [2, 5]: 152 mmo/L and 147 mmo/L and 145 mmo/L and 153 mmo/L and 148 mmo/L and 146 mmo/L and 149 mmo/L | TBIL [2, 5]: 0.15 mg/dL | TP [2, 5]: 5.2 g/dL and 5.3 g/dL and 4.9 g/dL and 5.1 g/dL and 5.0 g/dL and 5.6 g/dL and 5.5 g/dL and 5.4 g/dL | TRIG [2, 5]: 49 mg/dL and 46 mg/dL and 40 mg/dL and 53 mg/dL and 44 mg/dL and 34 mg/dL and 41 mg/dL and 55 mg/dL | AGR [2, 6]: 2.2 and 1.8 and 1.9 | ALB [2, 6]: 3.5 g/dL and 3.4 g/dL and 3.3 g/dL | ALPK [2, 6]: 103 IU/L and 104 IU/L and 107 IU/L | ALT [2, 6]: 28 IU/L and 26 IU/L | AST [2, 6]: 33 IU/L and 39 IU/L | BUN [2, 6]: 12 mg/dL and 13 mg/dL | CA2 [2, 6]: 10.8 mg/dL and 10.7 mg/dL and 10.5 mg/dL | CHOL [2, 6]: 139 mg/dL and 136 mg/dL and 112 mg/dL | CREA [2, 6]: 0.7 mg/dL and 0.6 mg/dL | GGT [2, 6]: 3 IU/L | GLOB [2, 6]: 1.7 g/dL and 1.9 g/dL | GLUC [2, 6]: 102 mg/dL and 76 mg/dL and 91 mg/dL | K [2, 6]: 4.7 mmo/L and 5.0 mmo/L and 4.5 mmo/L | Na [2, 6]: 153 mmo/L and 148 mmo/L and 146 mmo/L | TBIL [2, 6]: 0.15 mg/dL | TP [2, 6]: 5.2 g/dL and 5.3 g/dL and 5.0 g/dL | TRIG [2, 6]: 51 mg/dL and 48 mg/dL and 42 mg/dL | Expected MIC: acceptable range (E. coli ATCC 25922): 0.5 to 2 µg/mL | Expected MIC: goal (E. coli ATCC 25922): 1 µg/mL
